For 16 compounds, TGI results are on record in PubChem BioAssay (NCI).

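All cell lines were grown in 96-well plates and treated with compound for 48 hours. TGI marks complete inhibition of growth.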

Among the test systems are HOP-62 NSCLC; IGROV1 ovarian; SK-MEL-28 melanoma; SK-MEL-2 melanoma; SNB-75 CNS; OVCAR-3 ovarian; 786-0 renal; BT-549 breast; COLO 205 colon; A549 NSCLC.
Experiment in all cases: DTP human tumour cell line panel, 48 h

As for `C=CC(Br)(CBr)CCC(Br)C(C)C` (stereo not given), the TGI – broadly, the concentration giving total growth inhibition – in the test on HOP-62 NSCLC turned out to be 9.71 µM; with IGROV1 ovarian, 11.1 µM; with SK-MEL-28 melanoma it was 16.8 µM; in the test on SK-MEL-2 melanoma it was 12.8 µM; with SNB-75 CNS it was 6.13 µM; in the test with OVCAR-3 ovarian, 8.9 µM. Further, the TGI turned out to be 2.93 µM in the test with 786-0 renal, 11.5 µM in the test with BT-549 breast, 19.8 µM in the test on COLO 205 colon and 28.5 µM in the test with A549 NSCLC.
As to `CCN(CC)CCC(=O)c1ccc(Oc2ccc(F)cc2)cc1`, the TGI is 56.6 µM in the test with HOP-62 NSCLC; 36 µM in the test with IGROV1 ovarian; 30.2 µM with SK-MEL-28 melanoma; more than 100 µM in the test with SK-MEL-2 melanoma; 47.8 µM in the test with SNB-75 CNS; 34.5 µM with OVCAR-3 ovarian. Besides, the TGI in the test on 786-0 renal was 28 µM; with BT-549 breast, 32.8 µM; in the test with COLO 205 colon it was 33.7 µM; in the test with A549 NSCLC, more than 100 µM.
Turning to `OCC(O)C(O)C(O)C(O)/C=N/Nc1nc(O)c(/C=C2\C=Nc3ccccc32)[nH]1` (stereo not given), the TGI in the test on HOP-62 NSCLC is more than 100 µM; with IGROV1 ovarian, more than 100 µM; in the test with SK-MEL-28 melanoma, more than 100 µM; in the test on SK-MEL-2 melanoma it was 97.7 µM; in the test with SNB-75 CNS, more than 100 µM; with OVCAR-3 ovarian, more than 100 µM. The TGI in the test with 786-0 renal, in the test on BT-549 breast, in the test with COLO 205 colon and with A549 NSCLC was more than 100 µM each time.
In the case of `COC(=O)[C@H](CCSC)NC(=O)c1ccc(CNC(=O)/C(C)=C/c2ccccc2)cc1`, the TGI in the test with HOP-62 NSCLC is 52.3 µM; in the test on IGROV1 ovarian it was more than 100 µM; in the test on SK-MEL-28 melanoma it was 64.7 µM; in the test on SK-MEL-2 melanoma, 66.3 µM; in the test with SNB-75 CNS it was 28.4 µM; with OVCAR-3 ovarian, more than 100 µM. Besides, the TGI with 786-0 renal is 41.8 µM; in the test on BT-549 breast it was 60.9 µM; with COLO 205 colon, more than 100 µM; with A549 NSCLC it was more than 100 µM.
Regarding `O=C(O)CC(O)(C(=O)O)C(O)C(=O)O` (stereo not given), the TGI in the test with HOP-62 NSCLC, with IGROV1 ovarian, with SK-MEL-28 melanoma, in the test on SK-MEL-2 melanoma, in the test with SNB-75 CNS and in the test on OVCAR-3 ovarian was more than 1000 µM each time. Besides, the TGI with 786-0 renal, in the test on BT-549 breast, with COLO 205 colon and in the test on A549 NSCLC was more than 1000 µM in each case.
Consider `COc1cccc(-c2cc(=O)c3cc(Cl)cnc3[nH]2)c1`, for which the TGI with HOP-62 NSCLC was 9.84 µM; in the test with IGROV1 ovarian, more than 100 µM; in the test on SK-MEL-28 melanoma, more than 100 µM; in the test on SK-MEL-2 melanoma, 98.2 µM; with SNB-75 CNS, more than 100 µM; in the test on OVCAR-3 ovarian, more than 43 µM. The TGI with 786-0 renal was 42.2 µM; with BT-549 breast, more than 100 µM; with COLO 205 colon, 7.59 µM; with A549 NSCLC it was 31.6 µM.
`C=CCC(CNC(=O)OCc1ccccc1)OC(=O)OCc1ccccc1` (stereo not given): the TGI in the test with HOP-62 NSCLC, in the test with IGROV1 ovarian, in the test with SK-MEL-28 melanoma, in the test on SK-MEL-2 melanoma, with SNB-75 CNS and in the test with OVCAR-3 ovarian was more than 100 µM in each case. Further, the TGI with 786-0 renal, in the test with BT-549 breast, in the test with COLO 205 colon and in the test with A549 NSCLC was more than 100 µM each time.
Turning to `CC1CN=C(c2ccc(COc3ccc(C4=NCC(C)N4)cc3)cc2)N1` (stereo not given), the TGI is more than 100 µM in the test on HOP-62 NSCLC; more than 100 µM in the test with IGROV1 ovarian; more than 100 µM in the test on SK-MEL-28 melanoma; 58.4 µM in the test with SK-MEL-2 melanoma; 64.4 µM with SNB-75 CNS; more than 100 µM in the test with OVCAR-3 ovarian. Besides, the TGI in the test on 786-0 renal, in the test with BT-549 breast, with COLO 205 colon and with A549 NSCLC was more than 100 µM each time.
Turning to `Nc1ccc(-c2nc3ccccc3s2)cc1Br`, the concentration for total growth inhibition (TGI) is more than 68.3 µM in the test on HOP-62 NSCLC; more than 100 µM in the test with IGROV1 ovarian; more than 100 µM in the test with SK-MEL-28 melanoma; more than 100 µM in the test on SK-MEL-2 melanoma; more than 86.4 µM in the test with SNB-75 CNS; more than 100 µM in the test on OVCAR-3 ovarian. The TGI in the test with 786-0 renal, in the test on BT-549 breast, in the test with COLO 205 colon and with A549 NSCLC was more than 100 µM each time.
As for `O=[N+]([O-])c1cc(Cl)ccc1S(=O)(=O)N1CCCc2cc(Cl)ccc21`, the TGI with HOP-62 NSCLC, in the test on IGROV1 ovarian, in the test on SK-MEL-28 melanoma, in the test with SK-MEL-2 melanoma, with SNB-75 CNS and in the test on OVCAR-3 ovarian was more than 100 µM each time. Further, the TGI in the test on 786-0 renal, with BT-549 breast, in the test on COLO 205 colon and with A549 NSCLC was more than 100 µM throughout.
As for `CC1(C)CC[C@]2(C(=O)O)[C@H](O)C[C@]3(C)C(=CC[C@@H]4[C@@]5(C)CC[C@H](OC6OC(C(=O)O)C(O)C(O)C6O)C(C)(C)[C@@H]5CC[C@]43C)[C@@H]2C1` (stereo not given in full), the TGI with HOP-62 NSCLC was more than 100 µM; in the test with IGROV1 ovarian, more than 100 µM; with SK-MEL-28 melanoma it was 37.1 µM; in the test on SK-MEL-2 melanoma, more than 100 µM; in the test with SNB-75 CNS, more than 100 µM; in the test on OVCAR-3 ovarian, more than 100 µM. Further, the TGI with 786-0 renal is more than 100 µM; in the test on BT-549 breast, 34.2 µM; in the test with COLO 205 colon it was more than 100 µM; in the test with A549 NSCLC it was more than 100 µM.
Consider `COc1cc2c(cc1OCCCCCOc1cc3c(cc1OC)C(=O)N1CCC[C@H]1CN3)N=C[C@@H]1CCCN1C2=O`, for which the TGI was 31.5 µM in the test with HOP-62 NSCLC; 21.3 µM in the test with IGROV1 ovarian; 28.2 µM in the test on SK-MEL-28 melanoma; 11.5 µM in the test with SK-MEL-2 melanoma; 95.2 µM with SNB-75 CNS; 44.7 µM in the test with OVCAR-3 ovarian. The TGI in the test with 786-0 renal is 63.2 µM; with BT-549 breast, 34.9 µM; in the test with COLO 205 colon it was more than 100 µM; with A549 NSCLC it was 27 µM.
As for `COCCNC1CCC2(SCCS2)c2[nH]c3ccccc3c21` (stereo not given), the TGI was more than 100 µM with HOP-62 NSCLC; more than 100 µM in the test on IGROV1 ovarian; more than 100 µM in the test on SK-MEL-28 melanoma; more than 100 µM with SK-MEL-2 melanoma; more than 100 µM in the test with SNB-75 CNS; 82.1 µM in the test with OVCAR-3 ovarian. Further, the TGI is more than 100 µM in the test on 786-0 renal, 38 µM in the test on BT-549 breast, 82.5 µM in the test with COLO 205 colon and more than 100 µM with A549 NSCLC.
On to `C=C1c2nc3ccccc3n2C=C(c2ccc(OC)cc2)N1c1ccc(OCCN2CCOCC2)cc1`, for which the TGI is more than 100 µM in the test on HOP-62 NSCLC; more than 100 µM with IGROV1 ovarian; more than 100 µM with SK-MEL-28 melanoma; more than 52.2 µM with SK-MEL-2 melanoma; more than 100 µM with SNB-75 CNS; more than 100 µM in the test with OVCAR-3 ovarian. In addition, the TGI in the test with 786-0 renal was more than 100 µM; with BT-549 breast, more than 100 µM; in the test with COLO 205 colon it was more than 57 µM; in the test with A549 NSCLC, more than 100 µM.
For `CCOP(=O)(OCC)C(C)(C)OC(=O)NC#N`, the TGI with HOP-62 NSCLC, in the test with IGROV1 ovarian, in the test on SK-MEL-28 melanoma, with SK-MEL-2 melanoma, in the test with SNB-75 CNS and with OVCAR-3 ovarian was more than 100 µM in each case. Also, the total growth inhibition concentration (TGI) in the test with 786-0 renal, with BT-549 breast, in the test on COLO 205 colon and in the test with A549 NSCLC was more than 100 µM each time.
`CCOP(=O)(OCC)C(Nc1ccc(F)cc1)c1ccccc1` (stereo not given): the TGI with HOP-62 NSCLC, in the test on IGROV1 ovarian, with SK-MEL-28 melanoma, in the test on SK-MEL-2 melanoma, in the test on SNB-75 CNS and with OVCAR-3 ovarian was more than 100 µM throughout. Moreover, the TGI in the test on 786-0 renal, in the test with BT-549 breast, in the test on COLO 205 colon and with A549 NSCLC was more than 100 µM each time.
